According to BindingDB's records for doi:10.1016/j.ejmech.2012.12.014 (Universitat De Barcelona, 2013):

Key:
[1] = molecular target: T1, Glycogen synthase kinase-3 alpha (Homo sapiens, UniProt P49840); assay: (§1) Inhibition of human recombinant GSK-3alpha using GS2 peptide as substrate and [gamma33P]-ATP after 12 mins by scintillation counting
[2] = molecular target: T2, Cyclin-dependent kinase 1 (Homo sapiens, UniProt P06493); assay: (§2) Inhibition of human recombinant CDK1 using histone H1 as substrate and [gamma33P]-ATP after 15 mins by scintillation counting
T2 sequence (P06493 whole entry): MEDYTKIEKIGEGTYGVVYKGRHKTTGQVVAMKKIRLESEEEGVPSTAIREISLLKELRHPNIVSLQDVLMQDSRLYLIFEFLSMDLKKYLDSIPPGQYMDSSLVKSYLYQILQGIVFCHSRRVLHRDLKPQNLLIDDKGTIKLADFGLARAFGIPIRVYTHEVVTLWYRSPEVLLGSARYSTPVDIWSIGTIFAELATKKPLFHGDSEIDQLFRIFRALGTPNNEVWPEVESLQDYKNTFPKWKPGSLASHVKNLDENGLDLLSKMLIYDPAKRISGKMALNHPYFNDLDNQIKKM

[3] = molecular target: T2, Cyclin-dependent kinase 1; assay: as §2; remark: listed apart in the source
[4] = molecular target: T3, Cyclin-dependent kinase 5 (Homo sapiens, UniProt Q00535); assay: (§3) Inhibition of human recombinant CDK5 using histone H1 as substrate and [gamma33P]-ATP after 20 mins by scintillation counting
T3 sequence (Q00535 whole entry): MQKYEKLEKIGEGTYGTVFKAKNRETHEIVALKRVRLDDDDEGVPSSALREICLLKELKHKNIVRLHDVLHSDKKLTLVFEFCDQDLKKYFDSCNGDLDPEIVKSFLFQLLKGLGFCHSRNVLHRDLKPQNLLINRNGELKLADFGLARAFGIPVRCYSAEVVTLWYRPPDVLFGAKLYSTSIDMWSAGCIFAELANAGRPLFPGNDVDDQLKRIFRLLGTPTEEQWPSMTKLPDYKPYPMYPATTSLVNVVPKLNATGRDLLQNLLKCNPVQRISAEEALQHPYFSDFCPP

[5] = molecular target: T4, Glycogen synthase kinase-3 beta (Homo sapiens, UniProt P49841); assay: (§4) Inhibition of human recombinant GSK-3beta using GS2 peptide as substrate and [gamma33P]-ATP after 30 mins by scintillation counting
T4 sequence (P49841 whole entry): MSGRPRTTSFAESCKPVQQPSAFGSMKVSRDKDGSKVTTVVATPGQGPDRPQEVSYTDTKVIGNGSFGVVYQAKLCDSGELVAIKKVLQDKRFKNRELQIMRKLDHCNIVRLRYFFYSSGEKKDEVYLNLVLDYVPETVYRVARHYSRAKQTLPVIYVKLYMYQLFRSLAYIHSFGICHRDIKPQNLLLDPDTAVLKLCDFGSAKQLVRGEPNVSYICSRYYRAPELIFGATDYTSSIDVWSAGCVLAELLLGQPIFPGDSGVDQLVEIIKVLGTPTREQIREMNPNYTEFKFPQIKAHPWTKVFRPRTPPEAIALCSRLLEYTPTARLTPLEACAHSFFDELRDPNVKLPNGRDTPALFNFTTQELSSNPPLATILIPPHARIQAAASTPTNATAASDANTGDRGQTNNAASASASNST

[6] = molecular target: T4, Glycogen synthase kinase-3 beta; assay: as §4; remark: listed apart in the source
[7] = molecular target: T1, Glycogen synthase kinase-3 alpha; assay: as §1; remark: listed apart in the source
[8] = molecular target: T3, Cyclin-dependent kinase 5; assay: as §3; remark: listed apart in the source

T1 sequence (P49840 whole entry): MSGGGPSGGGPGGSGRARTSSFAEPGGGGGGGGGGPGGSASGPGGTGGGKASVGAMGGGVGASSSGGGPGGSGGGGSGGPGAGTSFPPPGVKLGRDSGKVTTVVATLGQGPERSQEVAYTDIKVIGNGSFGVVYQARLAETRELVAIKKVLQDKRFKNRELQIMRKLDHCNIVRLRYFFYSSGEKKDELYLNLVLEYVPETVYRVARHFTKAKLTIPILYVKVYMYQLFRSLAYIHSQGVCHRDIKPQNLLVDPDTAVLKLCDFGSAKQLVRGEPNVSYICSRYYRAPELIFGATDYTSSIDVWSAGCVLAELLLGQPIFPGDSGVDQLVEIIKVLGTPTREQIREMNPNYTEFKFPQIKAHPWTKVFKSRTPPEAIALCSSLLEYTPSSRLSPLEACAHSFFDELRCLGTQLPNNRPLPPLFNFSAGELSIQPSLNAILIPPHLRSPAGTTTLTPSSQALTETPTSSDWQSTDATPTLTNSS

IC50 [1] [µM]	IC50 [2] [µM]	IC50 [3] [µM]	IC50 [4] [µM]	IC50 [5] [µM]	IC50 [6] [µM]	IC50 [7] [µM]	IC50 [8] [µM]	Compound
1.62	< 100	< 100	< 25.1	1.91	1.91	1.62	< 25.1	C/C(=C\C=C\C(C)CC/C=C(\C)C[C@H]1OC(=O)C(C)C1=O)CCCc1ccoc1 (some centres not stated) [PALINURIN]
				2.34	2.34			C/C(=C/CC[C@@H](C)C=C1OC(=O)C(C)C1=O)CCCc1coc(Cc2ccoc2)c1 (some centres not stated) [Ircinin 2]
				> 50	> 50			CCCCCCCC(=O)OC[C@H](O)[C@H]1OC(=O)C(O)C1=O (some centres not stated)
